Measured values as given in PubChem BioAssay AID256 (DTP/NCI, 2004).
Values joined by “and” are separate entries in the source; they are usually repeats but may differ in a detail not shown here. Identical values can stand only once. Inconclusive results and toxic doses are left out. How the source made its calls: active means survival T/C of 150% or more; inactive means T/C below 125% in these data. Residues, ends and D or L forms follow the SMILES beside them. *: point of attachment. Octanoyl = CCCCCCCC(=O)*

System: CD2F1 mice, L1210 leukemia ip, survival T/C
Test: NCI In Vivo Anticancer Drug Screen. Data for tumor model L1210 Leukemia (intraperitoneal) in CD2F1 (CDF1) mice
Conditions: endpoint: mean survival time, higher = longer survival
How it was run: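 Mice carrying a transplanted tumor received test compound or vehicle alone. The value is the measurement in the treated group divided by that in the vehicle-treated control group.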

[1] = dose: 100.0 mg/kg/injection, schedule: Q01DX001 (ip), vehicle: saline with Tween-80
[2] = dose: 200.0 mg/kg/injection, schedule: Q01DX001 (ip), vehicle: saline with Tween-80
[3] = dose: 100.0 mg/kg/injection, schedule: Q04DX002 (ip), vehicle: saline with Tween-80
[4] = dose: 100.0 mg/kg/injection, schedule: Q01DX009 (ip), vehicle: saline with Tween-80
[5] = dose: 200.0 mg/kg/injection, schedule: Q01DX009 (ip), vehicle: saline with Tween-80
[6] = dose: 400.0 mg/kg/injection, schedule: Q01DX001 (ip), vehicle: saline with Tween-80
[7] = dose: 400.0 mg/kg/injection, schedule: Q01DX009 (ip), vehicle: saline with Tween-80
[8] = dose: 100.0 mg/kg/injection, schedule: Q01DX009 (ip), vehicle: saline
[9] = dose: 200.0 mg/kg/injection, schedule: Q01DX009 (ip), vehicle: saline
[10] = dose: 400.0 mg/kg/injection, schedule: Q01DX009 (ip), vehicle: saline
[11] = dose: 100.0 mg/kg/injection, schedule: Q04DX003 (ip), vehicle: saline with Tween-80
[12] = dose: 200.0 mg/kg/injection, schedule: Q04DX003 (ip), vehicle: saline with Tween-80
[13] = dose: 400.0 mg/kg/injection, schedule: Q04DX003 (ip), vehicle: saline with Tween-80
[14] = dose: 50.0 mg/kg/injection, schedule: Q01DX009 (ip), vehicle: saline
[15] = dose: 12.5 mg/kg/injection, schedule: Q01DX009 (ip), vehicle: other
[16] = dose: 25.0 mg/kg/injection, schedule: Q01DX009 (ip), vehicle: other
[17] = dose: 50.0 mg/kg/injection, schedule: Q01DX009 (ip), vehicle: other
[18] = dose: 100.0 mg/kg/injection, schedule: Q01DX009 (ip), vehicle: other

Measured: T/C

O=C1NC(=O)C(CCCCO)N1 (centres undefined)
inactive: [1] 101 % of control | [2] 106 % of control | dose: 300.0 mg/kg/injection, schedule: Q01DX001 (ip), vehicle: saline with Tween-80 98 % of control

CCCCCCCC(=O)NCC(=O)NCC(=O)O (Octanoyl-Gly-Gly-OH)
inactive: dose: 6.25 mg/kg/injection, schedule: Q01DX001 (ip), vehicle: Klucel (hydroxypropylcellulose) (HPC) 97 % of control | dose: 12.5 mg/kg/injection, schedule: Q01DX001 (ip), vehicle: Klucel (hydroxypropylcellulose) (HPC) 95 % of control | dose: 25.0 mg/kg/injection, schedule: Q01DX001 (ip), vehicle: Klucel (hydroxypropylcellulose) (HPC) 100 % of control | dose: 50.0 mg/kg/injection, schedule: Q01DX001 (ip), vehicle: Klucel (hydroxypropylcellulose) (HPC) 93 % of control

COc1cc(-c2ccncc2)nc(OC)n1
inactive: [3] 96 % of control | dose: 200.0 mg/kg/injection, schedule: Q04DX002 (ip), vehicle: saline with Tween-80 88 % of control

Cc1cncn1Cc1ccccc1
inactive: dose: 50.0 mg/kg/injection, schedule: Q01DX009 (ip), vehicle: Klucel (hydroxypropylcellulose) (HPC) 94 % of control | dose: 100.0 mg/kg/injection, schedule: Q01DX009 (ip), vehicle: Klucel (hydroxypropylcellulose) (HPC) 108 % of control | dose: 200.0 mg/kg/injection, schedule: Q01DX009 (ip), vehicle: Klucel (hydroxypropylcellulose) (HPC) 103 % of control

O=C(/C=C/c1ccccc1)NC(=S)NCc1ccccc1
inactive: [1] 91 % of control | [4] 97 % of control and 100 % of control | [3] 89 % of control and 94 % of control and 98 % of control | [2] 88 % of control | [5] 94 % of control and 104 % of control | [6] 91 % of control | [7] 101 % of control and 105 % of control

c1ccc2c[n+](CCCCCCCCCC[n+]3ccc4ccccc4c3)ccc2c1
inactive: dose: 8.0 mg/kg/injection, schedule: Q01DX001 (ip), vehicle: saline 88 % of control | dose: 32.0 mg/kg/injection, schedule: Q01DX001 (ip), vehicle: saline 88 % of control

COc1ccc(C(=O)Nc2ccc(Br)cc2)cc1
inactive: [8] 93 % of control | [9] 108 % of control | [10] 98 % of control

CC1OC(O)C(O)C(O)C1O (centres undefined)
inactive: dose: 100.0 mg/kg/injection, schedule: Q01DX001 (ip), vehicle: saline 102 % of control | dose: 200.0 mg/kg/injection, schedule: Q01DX001 (ip), vehicle: saline 100 % of control | dose: 400.0 mg/kg/injection, schedule: Q01DX001 (ip), vehicle: saline 100 % of control

O=Cc1ccccc1O
inactive: dose: 100.0 mg/kg/injection, schedule: Q04DX002 (ip), vehicle: saline 93 % of control

C=C1C(=O)O[C@H]2C[C@@H](C)[C@@H]3[C@@H](O)C[C@@H](O)[C@@]3(C)C[C@H]12
inactive: [4] 100 % of control | [11] 102 % of control | [5] 94 % of control | [12] 96 % of control | [7] 100 % of control | [13] 103 % of control

CCOC(=O)COC(CN)C(Cl)(Cl)Cl (centres undefined)
inactive: [11] 101 % of control | [12] 97 % of control

CC[C@H]1CN2CCc3cc(OC)c(OC)cc3[C@@H]2C[C@@H]1C[C@@H]1c2cc(OC)c(OC)cc2CCN1N=O
inactive: dose: 12.5 mg/kg/injection, schedule: Q01DX009 (ip), vehicle: saline 104 % of control | dose: 25.0 mg/kg/injection, schedule: Q01DX009 (ip), vehicle: saline 104 % of control | dose: 25.0 mg/kg/injection, schedule: Q04DX003 (ip), vehicle: saline 100 % of control | [14] 107 % of control | dose: 50.0 mg/kg/injection, schedule: Q04DX003 (ip), vehicle: saline 95 % of control

Cc1cc(C)c(/C=N/NC(=O)NN)c(C)c1
inactive: [11] 91 % of control | [12] 96 % of control | [13] 88 % of control

CCOC(=O)CCC(NC(=O)c1ccc(N(C=O)CCOC=O)cc1)C(=O)OCC (centres undefined)
inactive: [11] 97 % of control | [12] 96 % of control | [13] 96 % of control

COC(=O)CCC#N
inactive: dose: 100.0 mg/kg/injection, schedule: Q04DX003 (ip), vehicle: saline 96 % of control | dose: 200.0 mg/kg/injection, schedule: Q04DX003 (ip), vehicle: saline 91 % of control | dose: 400.0 mg/kg/injection, schedule: Q04DX003 (ip), vehicle: saline 97 % of control

O=C(OC1COC(OC(=O)c2ccccc2)C(OC(=O)c2ccccc2)C1OC(=O)c1ccccc1)c1ccccc1 (centres undefined)
inactive: [4] 97 % of control | [11] 101 % of control | [5] 95 % of control | [12] 86 % of control | [7] 97 % of control | [13] 95 % of control

C#CCC(O)CC (centres undefined)
inactive: [14] 103 % of control | [8] 107 % of control | [9] 103 % of control

Cc1ccc(CC(=O)O)cc1C
inactive: [11] 98 % of control | [12] 95 % of control | [13] 98 % of control

CSc1nc(N)c2c(C(N)=O)cc(=O)n(C3OC(CO)C(O)C3O)c2n1 (centres undefined)
inactive: dose: 12.5 mg/kg/injection, schedule: Q01DX005 (ip), vehicle: water 96 % of control | dose: 25.0 mg/kg/injection, schedule: Q01DX005 (ip), vehicle: water 96 % of control | dose: 50.0 mg/kg/injection, schedule: Q01DX005 (ip), vehicle: water 96 % of control | dose: 100.0 mg/kg/injection, schedule: Q01DX005 (ip), vehicle: water 93 % of control | dose: 200.0 mg/kg/injection, schedule: Q01DX005 (ip), vehicle: water 101 % of control

C1=C(c2ccccc2)N(c2ccccc2)N=C(c2ccccc2)C1
inactive: [1] 94 % of control | [2] 94 % of control | [6] 98 % of control

COc1ccccc1OC(=O)Nc1ccccc1F
inactive: [11] 101 % of control | [12] 97 % of control | [13] 101 % of control

Cc1ccc(S(=O)(=O)OCCCCCOS(=O)(=O)c2ccc(C)cc2)cc1
inactive: [4] 100 % of control | [11] 100 % of control | [5] 100 % of control | [12] 100 % of control | [7] 100 % of control | [13] 97 % of control

O=c1c2cccc3c2-c2c4c(cccc14)c(O)c1cccc(c3=O)c21
inactive: dose: 100.0 mg/kg/injection, schedule: Q04DX003 (ip), vehicle: saline sonified 94 % of control | dose: 200.0 mg/kg/injection, schedule: Q04DX003 (ip), vehicle: saline sonified 95 % of control | dose: 400.0 mg/kg/injection, schedule: Q04DX003 (ip), vehicle: saline sonified 92 % of control

CSc1nccc2ccccc12
inactive: [15] 106 % of control | [16] 106 % of control | [17] 106 % of control | [18] 106 % of control

O=C1c2ccccc2CC1c1ccccc1 (centres undefined)
inactive: [15] 102 % of control | [16] 102 % of control | [17] 97 % of control | [18] 96 % of control | dose: 200.0 mg/kg/injection, schedule: Q01DX009 (ip), vehicle: other 100 % of control

CC(C)(CBr)COC(=O)Nc1cccc2ccccc12
inactive: dose: 12.5 mg/kg/injection, schedule: Q01DX009 (ip), vehicle: saline with Tween-80 91 % of control | dose: 25.0 mg/kg/injection, schedule: Q01DX009 (ip), vehicle: saline with Tween-80 91 % of control | dose: 50.0 mg/kg/injection, schedule: Q01DX009 (ip), vehicle: saline with Tween-80 95 % of control

O=C(C=C(C(F)(F)F)C(F)(F)F)c1ccccc1[N+](=O)[O-]
inactive: dose: 12.5 mg/kg/injection, schedule: Q04DX003 (ip), vehicle: other 103 % of control | dose: 25.0 mg/kg/injection, schedule: Q04DX003 (ip), vehicle: other 109 % of control

Cc1ccc(NC(=O)NC2CCCCC2)cc1
inactive: [11] 93 % of control | [12] 90 % of control | [13] 93 % of control

COC(=O)c1cccc(COc2ccc([N+](=O)[O-])cc2Cl)c1
inactive: [4] 98 % of control | [11] 101 % of control | [5] 96 % of control | [12] 100 % of control | [7] 95 % of control | [13] 100 % of control

COC(=O)C(N)Cc1ccc(OC(c2ccccc2)(c2ccccc2)c2ccccc2)cc1 (centres undefined)
inactive: [14] 100 % of control | [8] 92 % of control | [9] 94 % of control | [10] 94 % of control

CCCCC(OC(=O)Nc1cccc2ccccc12)C(C)C (centres undefined)
inactive: [11] 91 % of control | [12] 88 % of control

[O-][n+]1c2c(cc3ccccc31)Cc1ccccc1-2
inactive: dose: 100.0 mg/kg/injection, schedule: Q04DX003 (ip), vehicle: Klucel (hydroxypropylcellulose) (HPC) 98 % of control | dose: 200.0 mg/kg/injection, schedule: Q04DX003 (ip), vehicle: Klucel (hydroxypropylcellulose) (HPC) 96 % of control | dose: 400.0 mg/kg/injection, schedule: Q04DX003 (ip), vehicle: Klucel (hydroxypropylcellulose) (HPC) 93 % of control
